Measured values reported in the NIST ThermoML archive (doi:10.1021/je4003916).
± gives the expanded uncertainty stated by the source.

Assay: xn = mol fraction of the nth substance listed
Settings: 101 kPa, Liquid; for mass density: Vibrating tube method

COC(=O)CCCCC(=O)OC [dimethyl 1,6-hexanedioate] + CCCCO
viscosity [mPa·s], stabinger viscometer
Settings | x1 = 0.0999 | x1 = 0.2004 | x1 = 0.2999 | x1 = 0.4003 | x1 = 0.4999 | x1 = 0.6007 | x1 = 0.6996 | x1 = 0.7994 | x1 = 0.8991 | x1 = 1
288.15 K | 2.635 ± 0.008 | 2.426 ± 0.008 | 2.384 ± 0.008 | 2.422 ± 0.009 | 2.519 ± 0.01 | 2.66 ± 0.011 | 2.884 ± 0.013 | 3.08 ± 0.014 | 3.379 ± 0.016 | 3.751 ± 0.019
293.15 K | 2.322 ± 0.007 | 2.147 ± 0.007 | 2.114 ± 0.008 | 2.149 ± 0.008 | 2.237 ± 0.009 | 2.361 ± 0.01 | 2.556 ± 0.011 | 2.723 ± 0.013 | 2.977 ± 0.015 | 3.289 ± 0.017
298.15 K | 2.057 ± 0.007 | 1.911 ± 0.007 | 1.886 ± 0.007 | 1.92 ± 0.007 | 2.003 ± 0.008 | 2.11 ± 0.009 | 2.287 ± 0.01 | 2.425 ± 0.011 | 2.649 ± 0.013 | 2.91 ± 0.015
303.15 K | 1.837 ± 0.006 | 1.716 ± 0.006 | 1.699 ± 0.006 | 1.732 ± 0.007 | 1.805 ± 0.007 | 1.902 ± 0.008 | 2.06 ± 0.009 | 2.183 ± 0.01 | 2.374 ± 0.012 | 2.604 ± 0.013
308.15 K | 1.646 ± 0.006 | 1.546 ± 0.006 | 1.536 ± 0.006 | 1.569 ± 0.006 | 1.636 ± 0.007 | 1.724 ± 0.008 | 1.868 ± 0.009 | 1.975 ± 0.009 | 2.144 ± 0.011 | 2.343 ± 0.012
313.15 K | 1.481 ± 0.005 | 1.4 ± 0.005 | 1.396 ± 0.005 | 1.428 ± 0.006 | 1.491 ± 0.006 | 1.572 ± 0.007 | 1.704 ± 0.008 | 1.797 ± 0.009 | 1.947 ± 0.01 | 2.121 ± 0.011
318.15 K | 1.338 ± 0.005 | 1.272 ± 0.005 | 1.273 ± 0.005 | 1.306 ± 0.006 | 1.365 ± 0.006 | 1.44 ± 0.007 | 1.562 ± 0.007 | 1.645 ± 0.008 | 1.778 ± 0.009 | 1.933 ± 0.01
323.15 K | 1.229 ± 0.005 | 1.176 ± 0.005 | 1.179 ± 0.005 | 1.214 ± 0.005 | 1.268 ± 0.006 | 1.339 ± 0.006 | 1.456 ± 0.007 | 1.528 ± 0.008 | 1.648 ± 0.008 | 1.79 ± 0.009

C1CCOC1 [tetrahydrofuran] + CCCCO
Settings | mass density [kg/m3] | viscosity [mPa·s]
288.15 K, x1 = 0.1001 | 820.7 ± 0.14 | 2.377 ± 0.023
288.15 K, x1 = 0.2003 | 828.11 ± 0.13 | 1.788 ± 0.019
288.15 K, x1 = 0.3 | 835.61 ± 0.13 | 1.416 ± 0.017
288.15 K, x1 = 0.4003 | 843.28 ± 0.13 | 1.15 ± 0.015
288.15 K, x1 = 0.5 | 851.03 ± 0.13 | 0.962 ± 0.014
288.15 K, x1 = 0.6001 | 858.98 ± 0.12 | 0.836 ± 0.013
288.15 K, x1 = 0.7003 | 867.19 ± 0.12 | 0.723 ± 0.012
288.15 K, x1 = 0.8006 | 875.64 ± 0.12 | 0.642 ± 0.012
288.15 K, x1 = 0.9002 | 884.34 ± 0.12 | 0.578 ± 0.011
288.15 K, x1 = 1 | 893.29 ± 0.11 | 0.522 ± 0.011
293.15 K, x1 = 0.1001 | 816.75 ± 0.14 | 2.111 ± 0.022
293.15 K, x1 = 0.2003 | 823.99 ± 0.13 | 1.612 ± 0.018
293.15 K, x1 = 0.3 | 831.34 ± 0.13 | 1.292 ± 0.016
293.15 K, x1 = 0.4003 | 838.84 ± 0.13 | 1.061 ± 0.015
293.15 K, x1 = 0.5 | 846.43 ± 0.13 | 0.895 ± 0.013
293.15 K, x1 = 0.6001 | 854.21 ± 0.13 | 0.785 ± 0.013
293.15 K, x1 = 0.7003 | 862.27 ± 0.12 | 0.683 ± 0.012
293.15 K, x1 = 0.8006 | 870.54 ± 0.12 | 0.61 ± 0.012
293.15 K, x1 = 0.9002 | 879.08 ± 0.12 | 0.555 ± 0.011
293.15 K, x1 = 1 | 887.86 ± 0.12 | 0.502 ± 0.011
298.15 K, x1 = 0.1001 | 812.77 ± 0.14 | 1.882 ± 0.02
298.15 K, x1 = 0.2003 | 819.86 ± 0.14 | 1.46 ± 0.017
298.15 K, x1 = 0.3 | 827.04 ± 0.13 | 1.184 ± 0.015
298.15 K, x1 = 0.4003 | 834.38 ± 0.13 | 0.979 ± 0.014
298.15 K, x1 = 0.5 | 841.8 ± 0.13 | 0.834 ± 0.013
298.15 K, x1 = 0.6001 | 849.43 ± 0.13 | 0.736 ± 0.012
298.15 K, x1 = 0.7003 | 857.31 ± 0.13 | 0.645 ± 0.012
298.15 K, x1 = 0.8006 | 865.41 ± 0.12 | 0.579 ± 0.011
298.15 K, x1 = 0.9002 | 873.78 ± 0.12 | 0.528 ± 0.011
298.15 K, x1 = 1 | 882.4 ± 0.12 | 0.48 ± 0.011
303.15 K, x1 = 0.1001 | 808.76 ± 0.14 | 1.687 ± 0.019
303.15 K, x1 = 0.2003 | 815.69 ± 0.14 | 1.331 ± 0.016
303.15 K, x1 = 0.3 | 822.71 ± 0.14 | 1.087 ± 0.015
303.15 K, x1 = 0.4003 | 829.89 ± 0.13 | 0.908 ± 0.014
303.15 K, x1 = 0.5 | 837.15 ± 0.13 | 0.779 ± 0.013
303.15 K, x1 = 0.6001 | 844.61 ± 0.13 | 0.692 ± 0.012
303.15 K, x1 = 0.7003 | 852.32 ± 0.13 | 0.61 ± 0.012
303.15 K, x1 = 0.8006 | 860.26 ± 0.12 | 0.55 ± 0.011
303.15 K, x1 = 0.9002 | 868.46 ± 0.12 | 0.502 ± 0.011
303.15 K, x1 = 1 | 876.91 ± 0.12 | 0.459 ± 0.011
308.15 K, x1 = 0.1001 | 804.73 ± 0.14 | 1.517 ± 0.018
308.15 K, x1 = 0.2003 | 811.49 ± 0.14 | 1.215 ± 0.016
308.15 K, x1 = 0.3 | 818.36 ± 0.14 | 1 ± 0.014
308.15 K, x1 = 0.4003 | 825.36 ± 0.13 | 0.843 ± 0.013
308.15 K, x1 = 0.5 | 832.46 ± 0.13 | 0.728 ± 0.012
308.15 K, x1 = 0.6001 | 839.75 ± 0.13 | 0.652 ± 0.012
308.15 K, x1 = 0.7003 | 847.3 ± 0.13 | 0.576 ± 0.011
308.15 K, x1 = 0.8006 | 855.06 ± 0.13 | 0.521 ± 0.011
308.15 K, x1 = 0.9002 | 863.09 ± 0.12 | 0.478 ± 0.011
308.15 K, x1 = 1 | 871.38 ± 0.12 | 0.44 ± 0.011
313.15 K, x1 = 0.1001 | 800.66 ± 0.14 | 1.368 ± 0.017
313.15 K, x1 = 0.2003 | 807.26 ± 0.14 | 1.111 ± 0.015
313.15 K, x1 = 0.3 | 813.96 ± 0.14 | 0.922 ± 0.014
313.15 K, x1 = 0.4003 | 820.81 ± 0.14 | 0.782 ± 0.013
313.15 K, x1 = 0.5 | 827.74 ± 0.13 | 0.681 ± 0.012
313.15 K, x1 = 0.6001 | 834.86 ± 0.13 | 0.608 ± 0.012
313.15 K, x1 = 0.7003 | 842.24 ± 0.13 | 0.543 ± 0.011
313.15 K, x1 = 0.8006 | 849.83 ± 0.13 | 0.494 ± 0.011
313.15 K, x1 = 0.9002 | 857.7 ± 0.13 | 0.454 ± 0.011
313.15 K, x1 = 1 | 865.81 ± 0.12 | 0.418 ± 0.01
318.15 K, x1 = 0.1001 | 796.55 ± 0.14 | 1.238 ± 0.016
318.15 K, x1 = 0.2003 | 802.99 ± 0.14 | 1.019 ± 0.014
318.15 K, x1 = 0.3 | 809.53 ± 0.14 | 0.852 ± 0.013
318.15 K, x1 = 0.4003 | 816.21 ± 0.14 | 0.727 ± 0.012
318.15 K, x1 = 0.5 | 822.98 ± 0.14 | 0.637 ± 0.012
318.15 K, x1 = 0.6001 | 829.93 ± 0.13 | 0.571 ± 0.011
318.15 K, x1 = 0.7003 | 837.14 ± 0.13 | 0.513 ± 0.011
318.15 K, x1 = 0.8006 | 844.56 ± 0.13 | 0.466 ± 0.011
318.15 K, x1 = 0.9002 | 852.25 ± 0.13 | 0.428 ± 0.01
318.15 K, x1 = 1 | 860.2 ± 0.12 | 0.396 ± 0.01
323.15 K, x1 = 0.1001 | 792.4 ± 0.14 | 1.139 ± 0.015
323.15 K, x1 = 0.2003 | 798.67 ± 0.14 | 0.949 ± 0.014
323.15 K, x1 = 0.3 | 805.05 ± 0.14 | 0.795 ± 0.013
323.15 K, x1 = 0.4003 | 811.57 ± 0.14 | 0.683 ± 0.012
323.15 K, x1 = 0.5 | 818.17 ± 0.14 | 0.599 ± 0.012
323.15 K, x1 = 0.6001 | 824.96 ± 0.14 | 0.546 ± 0.011
323.15 K, x1 = 0.7003 | 832 ± 0.13 | 0.487 ± 0.011
323.15 K, x1 = 0.8006 | 839.25 ± 0.13 | 0.444 ± 0.011
323.15 K, x1 = 0.9002 | 846.77 ± 0.13 | 0.41 ± 0.01
323.15 K, x1 = 1 | 854.55 ± 0.13 | 0.384 ± 0.01
